Experimental data: patent US20260297042A1, “BIARYLAMIDE DERIVATIVES AND THEIR USE AS PKMYT1 INHIBITORS” (CANCER RESEARCH TECHNOLOGY LIMITED, priority 2023, published 2026)

Experiments:
[1] = target: T1, Human PKMYT1 (Homo sapiens, UniProt Q99640); test: PKMYT1 biochemical ADP-Glo enzymatic assay; details: ADP-Glo; 15 nM PKMYT1 kinase domain, 500 µM ATP, 60 minutes at 26° C.; banded
T1 construct: Human PKMYT1 75-362 was cloned as a TEV cleavable 6xHis fusion; 6xHis (TEV cleavable) (cleaved yes); made in house; host or cells: bacterial cells
T1 sequence (Q99640 75-362): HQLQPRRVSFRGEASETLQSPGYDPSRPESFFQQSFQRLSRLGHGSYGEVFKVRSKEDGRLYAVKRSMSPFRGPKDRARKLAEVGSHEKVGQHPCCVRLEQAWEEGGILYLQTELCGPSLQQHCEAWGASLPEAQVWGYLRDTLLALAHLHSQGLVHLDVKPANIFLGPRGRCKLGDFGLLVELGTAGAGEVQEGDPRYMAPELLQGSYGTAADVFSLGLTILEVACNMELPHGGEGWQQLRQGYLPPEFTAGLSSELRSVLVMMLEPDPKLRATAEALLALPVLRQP
Summary of the method: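 Compounds were titrated over 10 points (3-fold steps), then 15 nM purified PKMYT1 kinase domain (aa 75-362) and 500 µM ATP were added in pH 7.5 HEPES buffer. After 60 min at 26 °C, remaining ATP was depleted and ADP converted to luminescence for IC50 fitting.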

[2] = target: T2, WEE1 (Homo sapiens, UniProt P30291); test: Selectivity versus WEE1 assay (ADP-Glo enzymatic assay); format: biochemical; details: banded; for IC50: ADP-Glo, 15 nM WEE1, 60 minutes at 26° C.; for PKMYT1 vs. WEE1 selectivity: fold difference in selectivity for PKMYT1 over WEE1, ">N" = at least in this band but could be higher
T2 construct: purchased Thermo Fisher PR7373A
Summary of the method: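 Compounds were pre-dispensed, enzyme (15 nM final) was added in pH 7.5 HEPES buffer, and ATP ([…]) then started a 60 min incubation at 26° C. Afterwards ADP-Glo reagents were added in turn and luminescence was measured to derive IC50 values.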

T2 sequence (P30291 whole entry): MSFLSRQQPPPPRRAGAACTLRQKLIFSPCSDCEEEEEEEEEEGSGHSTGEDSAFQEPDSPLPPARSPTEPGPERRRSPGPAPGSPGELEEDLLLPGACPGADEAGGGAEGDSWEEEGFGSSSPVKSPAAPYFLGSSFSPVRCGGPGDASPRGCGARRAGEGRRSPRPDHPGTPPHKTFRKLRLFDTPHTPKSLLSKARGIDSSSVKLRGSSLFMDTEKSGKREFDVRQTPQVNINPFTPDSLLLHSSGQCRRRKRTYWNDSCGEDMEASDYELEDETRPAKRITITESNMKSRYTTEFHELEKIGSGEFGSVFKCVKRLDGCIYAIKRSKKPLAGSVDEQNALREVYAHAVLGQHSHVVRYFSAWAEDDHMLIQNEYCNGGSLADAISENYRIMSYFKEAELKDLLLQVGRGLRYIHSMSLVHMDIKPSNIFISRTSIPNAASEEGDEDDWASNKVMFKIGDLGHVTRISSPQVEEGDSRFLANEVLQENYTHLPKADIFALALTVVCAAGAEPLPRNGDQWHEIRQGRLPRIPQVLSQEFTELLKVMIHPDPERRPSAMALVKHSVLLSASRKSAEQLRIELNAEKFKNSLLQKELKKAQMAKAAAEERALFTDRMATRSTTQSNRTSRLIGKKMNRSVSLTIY

IC50 [1] | IC50 [2] | PKMYT1 vs. WEE1 selectivity [2] | SMILES
1000 to 11000 nM | > 11000 nM | W (10-<100 fold) | Cc1ccc(O)c(C)c1NC(=O)c1cnc(Nc2ccc(S(=O)(=O)C(F)(F)F)cc2)s1 [BAA-285, N-(3-hydroxy-2,6-dimethylphenyl)-2-((4. ((trifluoromethyl)sulfonyl)phenyl)amino) thiazole-5-carboxamide]
1000 to 11000 nM | > 11000 nM | W (10-<100 fold) | Cc1ccc(O)c(C)c1NC(=O)c1cnc(Nc2cccc(S(=O)(=O)N3CC(F)(F)C(F)(F)C3)c2)s1 [BAA-286, N-(3-hydroxy-2,6-dimethylphenyl)-2-((3-((3,3,4,4-tetrafluoropyrrolidin-1-yl)sulfonyl)phenyl)amino)thiazole-5-carboxamide]
< 50 nM | > 11000 nM | Y (1000-5000 fold) | Cc1ccc(O)c(C)c1NC(=O)c1cnc(Nc2cc(Cl)nc(C(F)(F)F)n2)s1 [BAA-287, 2-((6-chloro-2-(trifluoromethyl)pyrimidin-4-yl)amino)-N-(3-hydroxy-2,6-dimethylphenyl)thiazole-5-carboxamide]
50 to 1000 nM | > 11000 nM | X (100-<1000 fold) | Cc1ccc(O)c(C)c1NC(=O)c1cnc(Nc2ccc3cc(F)ccc3n2)s1 [BAA-288, 2-((6-fluoroquinolin-2-yl)amino)-N-(3-hydroxy-2,6-dimethylphenyl)thiazole-5-carboxamide]
< 50 nM | 1000 to 11000 nM | X (100-<1000 fold) | Cc1ccc(O)c(C)c1NC(=O)c1cnc(Nc2cccc(C(=O)N3CC4CCC3C4)c2)s1 (stereo not drawn) [BAA-289, 2-((3-(2-azabicyclo[2.2.1]heptane-2-carbonyl)phenyl)amino)-N-(3-hydroxy-2,6-dimethylphenyl)thiazole-5-carboxamide]
50 to 1000 nM | > 11000 nM | X (100-<1000 fold) | Cc1ccc(O)c(C)c1NC(=O)c1cnc(Nc2cc3cc(F)ccc3cn2)s1 [BAA-290, 2-((6-fluoroisoquinolin-3-yl)amino)-N-(3-hydroxy-2,6-dimethylphenyl)thiazole-5-carboxamide]
< 50 nM | > 11000 nM | Y (1000-5000 fold) | Cc1ccc(O)c(C)c1NC(=O)c1cnc(Nc2nccc(-c3ccc(Cl)cc3)n2)s1 [BAA-293, 2-((4-(4-chlorophenyl)pyrimidin-2-yl)amino)-N-(3-hydroxy-2,6-dimethylphenyl)thiazole-5-carboxamide]
50 to 1000 nM | > 11000 nM | Y (1000-5000 fold) | Cc1ccc(O)c(C)c1NC(=O)c1cnc(Nc2nc(C)c(Br)c(C)n2)s1 [BAA-295, 2-((5-bromo-4,6-dimethylpyrimidin-2-yl)amino)-N-(3-hydroxy-2,6-dimethylphenyl)thiazole-5-carboxamide]
< 50 nM | > 11000 nM | Y (1000-5000 fold) | Cc1ccc(O)c(C)c1NC(=O)c1cnc(Nc2ncc3cc(F)ccc3n2)s1 [BAA-296, 2-((6-fluoroquinazolin-2-yl)amino)-N-(3-hydroxy-2,6-dimethylphenyl)thiazole-5-carboxamide]
50 to 1000 nM | > 11000 nM | Y (1000-5000 fold) | Cc1ccc(C(=O)Nc2ccc(Nc3ncc(C(=O)Nc4c(C)ccc(O)c4C)s3)nc2)c(C)c1 [BAA-297, 2-((5-(2,4-dimethylbenzamido)pyridin-2-yl)amino)-N-(3-hydroxy-2,6-dimethylphenyl)thiazole-5-carboxamide]
50 to 1000 nM | > 11000 nM | Y (1000-5000 fold) | Cc1ccc(O)c(C)c1NC(=O)c1cnc(Nc2ccc3cc(Br)cnc3n2)s1 [BAA-298, 2-((6-bromo-1,8-naphthyridin-2-yl)amino)-N-(3-hydroxy-2,6-dimethylphenyl)thiazole-5-carboxamide]
